Assay results published in ChEMBL document CHEMBL5126546, “Advancements in the development of multi-target directed ligands for the treatment of Alzheimer's disease” (Bioorg Med Chem, 2022).

What was measured:
[1] = target: T1, Gamma-secretase (Homo sapiens) (UniProt Q96BI3+Q9NZ42+Q8WW43+P49768+Q92542+P49810); assay: Inhibition of gamma secretase in human H4 cells expressing human wild type APP assessed as reduction in amyloid beta 1-42 level at 100 uM for 12 hrs by ELISA; assay type: cell-based
[2] = target: T1, Gamma-secretase (Homo sapiens); assay: Inhibition of gamma secretase in human H4 cells expressing human wild type APP assessed as reduction in amyloid beta 1-40 level at 100 uM for 12 hrs by ELISA; assay type: cell-based
[3] = target: Fatty-acid amide hydrolase 1 (Homo sapiens, UniProt O00519); assay: Inhibition of FAAH (unknown origin) using 7-amino-4-methylcoumarin-arachidonamide as substrate preincubated for 5 mins followed by substrate addition and measured after 30 mins by fluorescence based assay
Fatty-acid amide hydrolase 1, sequence (O00519 whole entry): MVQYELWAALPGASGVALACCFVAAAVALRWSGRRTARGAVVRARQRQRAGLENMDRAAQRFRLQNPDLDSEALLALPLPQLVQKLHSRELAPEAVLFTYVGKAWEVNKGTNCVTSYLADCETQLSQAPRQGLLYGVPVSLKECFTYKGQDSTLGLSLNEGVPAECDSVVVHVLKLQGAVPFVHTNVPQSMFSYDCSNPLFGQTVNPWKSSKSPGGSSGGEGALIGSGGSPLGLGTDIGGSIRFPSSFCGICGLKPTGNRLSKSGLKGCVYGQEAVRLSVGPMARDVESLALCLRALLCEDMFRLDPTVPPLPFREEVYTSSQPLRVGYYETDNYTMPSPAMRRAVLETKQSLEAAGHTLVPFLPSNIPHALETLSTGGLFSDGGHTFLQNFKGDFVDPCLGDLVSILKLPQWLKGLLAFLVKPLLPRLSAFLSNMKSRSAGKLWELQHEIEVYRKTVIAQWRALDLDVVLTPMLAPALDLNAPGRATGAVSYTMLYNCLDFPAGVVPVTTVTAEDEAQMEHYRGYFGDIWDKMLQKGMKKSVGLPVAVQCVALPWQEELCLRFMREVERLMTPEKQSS

[4] = target: T2, Acetylcholinesterase (Electrophorus electricus, UniProt O42275); assay: Inhibition of Electrophorus electricus AchE using acetylthiocholine iodide as substrate preincubated for 15 mins followed by substrate addition and measured for 6 mins by DTNB reagent based Ellman's method
T2 sequence (O42275 whole entry): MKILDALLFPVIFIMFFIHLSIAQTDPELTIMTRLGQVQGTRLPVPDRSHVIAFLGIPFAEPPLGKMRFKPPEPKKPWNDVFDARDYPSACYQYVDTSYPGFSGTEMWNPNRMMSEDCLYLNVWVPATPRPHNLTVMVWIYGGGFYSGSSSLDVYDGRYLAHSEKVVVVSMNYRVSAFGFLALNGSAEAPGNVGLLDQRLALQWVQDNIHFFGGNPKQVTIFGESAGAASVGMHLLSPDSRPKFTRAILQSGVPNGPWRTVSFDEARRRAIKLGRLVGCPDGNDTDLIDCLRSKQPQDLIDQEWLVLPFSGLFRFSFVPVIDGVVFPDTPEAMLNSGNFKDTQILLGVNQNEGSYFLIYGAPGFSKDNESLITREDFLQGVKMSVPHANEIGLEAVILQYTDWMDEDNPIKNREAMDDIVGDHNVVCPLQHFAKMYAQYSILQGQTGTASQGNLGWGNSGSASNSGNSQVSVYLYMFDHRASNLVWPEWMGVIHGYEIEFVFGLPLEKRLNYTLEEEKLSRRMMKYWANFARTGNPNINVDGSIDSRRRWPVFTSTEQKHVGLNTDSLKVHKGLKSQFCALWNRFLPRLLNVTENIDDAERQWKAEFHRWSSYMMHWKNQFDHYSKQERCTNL

[5] = target: T3, Beta-secretase 1 (Homo sapiens, UniProt P56817); assay: Inhibition of BACE-1 (unknown origin)
T3 sequence (P56817 whole entry): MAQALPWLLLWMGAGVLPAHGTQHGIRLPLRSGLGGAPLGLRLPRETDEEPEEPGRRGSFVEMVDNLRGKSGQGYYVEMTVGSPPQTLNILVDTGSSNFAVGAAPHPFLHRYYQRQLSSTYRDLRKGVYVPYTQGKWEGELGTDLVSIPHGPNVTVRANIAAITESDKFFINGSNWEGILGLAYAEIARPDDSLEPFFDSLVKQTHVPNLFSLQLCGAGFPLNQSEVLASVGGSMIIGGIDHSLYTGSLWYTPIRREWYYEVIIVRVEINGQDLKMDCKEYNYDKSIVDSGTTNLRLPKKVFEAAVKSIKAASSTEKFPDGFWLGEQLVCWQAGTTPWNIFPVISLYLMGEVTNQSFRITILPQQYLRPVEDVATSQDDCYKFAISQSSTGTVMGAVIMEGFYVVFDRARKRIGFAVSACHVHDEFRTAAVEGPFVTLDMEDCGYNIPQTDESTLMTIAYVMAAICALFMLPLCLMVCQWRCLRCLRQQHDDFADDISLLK

[6] = target: T4, Cholinesterase (Homo sapiens, UniProt P06276); assay: Inhibition of human BuChE using butyrylthiocholine iodide as substrate at 10 uM preincubated for 6 mins followed by substrate addition and measured for 12 mins by DTNB reagent based Ellman's method; conditions: time 18.0 min
T4 sequence (P06276 whole entry): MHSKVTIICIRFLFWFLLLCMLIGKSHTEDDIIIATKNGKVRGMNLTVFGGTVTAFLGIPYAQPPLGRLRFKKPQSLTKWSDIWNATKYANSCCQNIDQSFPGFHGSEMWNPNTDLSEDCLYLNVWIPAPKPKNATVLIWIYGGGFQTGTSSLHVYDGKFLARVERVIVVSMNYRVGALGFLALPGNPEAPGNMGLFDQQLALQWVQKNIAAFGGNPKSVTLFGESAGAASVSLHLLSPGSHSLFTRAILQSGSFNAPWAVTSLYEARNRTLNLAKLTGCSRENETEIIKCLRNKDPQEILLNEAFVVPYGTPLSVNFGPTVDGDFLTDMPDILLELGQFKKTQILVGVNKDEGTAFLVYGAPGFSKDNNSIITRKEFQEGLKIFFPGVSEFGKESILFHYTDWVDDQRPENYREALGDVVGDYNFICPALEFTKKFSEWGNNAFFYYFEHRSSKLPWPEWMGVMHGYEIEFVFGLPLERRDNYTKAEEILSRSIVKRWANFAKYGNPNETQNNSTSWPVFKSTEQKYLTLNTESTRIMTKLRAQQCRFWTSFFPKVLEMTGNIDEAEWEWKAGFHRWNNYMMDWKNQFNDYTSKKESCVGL

[7] = target: T5, Acetylcholinesterase (Homo sapiens, UniProt P22303); assay: Inhibition of human AChE using acetylthiocholine iodide as substrate preincubated for 6 mins followed by substrate addition and measured for 12 mins by DTNB reagent based Ellman's method
T5 sequence (P22303 whole entry): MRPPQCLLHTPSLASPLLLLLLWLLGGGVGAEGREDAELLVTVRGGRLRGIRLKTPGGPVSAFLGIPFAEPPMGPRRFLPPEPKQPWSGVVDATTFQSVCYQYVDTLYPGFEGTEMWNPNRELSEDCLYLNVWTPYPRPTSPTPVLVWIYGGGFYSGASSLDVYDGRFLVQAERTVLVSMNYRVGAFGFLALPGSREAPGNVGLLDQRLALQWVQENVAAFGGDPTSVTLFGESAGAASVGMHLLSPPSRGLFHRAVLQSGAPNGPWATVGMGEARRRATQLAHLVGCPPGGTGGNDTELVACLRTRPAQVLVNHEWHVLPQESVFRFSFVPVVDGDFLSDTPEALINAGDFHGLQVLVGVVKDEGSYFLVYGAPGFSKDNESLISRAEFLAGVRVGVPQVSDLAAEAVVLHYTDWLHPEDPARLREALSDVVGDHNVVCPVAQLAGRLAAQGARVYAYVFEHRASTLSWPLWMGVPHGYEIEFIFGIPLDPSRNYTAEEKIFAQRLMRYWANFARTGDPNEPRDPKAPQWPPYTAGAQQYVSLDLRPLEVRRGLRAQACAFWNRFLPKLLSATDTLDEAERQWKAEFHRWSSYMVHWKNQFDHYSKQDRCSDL

[8] = target: T6, Amyloid-beta precursor protein (Homo sapiens, UniProt P05067); assay: Inhibition of amyloid beta (1 to 42) (unknown origin) self aggregation incubated for 24 hrs by Thioflavin T based fluorometric assay
T6 sequence (P05067 whole entry): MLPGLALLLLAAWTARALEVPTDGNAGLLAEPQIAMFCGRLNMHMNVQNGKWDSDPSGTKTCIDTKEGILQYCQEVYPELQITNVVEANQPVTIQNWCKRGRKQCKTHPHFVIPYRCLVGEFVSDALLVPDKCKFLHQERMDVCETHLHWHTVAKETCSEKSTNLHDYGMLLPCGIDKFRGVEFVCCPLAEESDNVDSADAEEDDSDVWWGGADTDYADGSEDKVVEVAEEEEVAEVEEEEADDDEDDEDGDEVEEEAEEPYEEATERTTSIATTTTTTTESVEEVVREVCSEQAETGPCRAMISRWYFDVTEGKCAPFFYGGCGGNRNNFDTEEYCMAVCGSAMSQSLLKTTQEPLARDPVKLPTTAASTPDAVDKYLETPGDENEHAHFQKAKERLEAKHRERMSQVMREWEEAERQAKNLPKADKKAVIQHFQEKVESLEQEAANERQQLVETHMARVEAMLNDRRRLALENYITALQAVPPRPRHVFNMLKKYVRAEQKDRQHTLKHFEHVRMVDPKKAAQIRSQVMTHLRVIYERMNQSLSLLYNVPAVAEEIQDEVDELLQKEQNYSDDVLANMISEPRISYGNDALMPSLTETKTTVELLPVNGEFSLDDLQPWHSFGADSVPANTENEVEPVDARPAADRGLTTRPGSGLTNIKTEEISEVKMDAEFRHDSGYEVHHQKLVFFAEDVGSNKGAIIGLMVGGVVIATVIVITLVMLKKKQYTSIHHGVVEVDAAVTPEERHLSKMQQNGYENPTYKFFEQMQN

[9] = target: T3, Beta-secretase 1; assay: Inhibition of human BACE-1 using Rh-EVNLDAEFK-quencher as peptide substrate incubated for 1 hr in dark by FRET assay
[10] = target: T5, Acetylcholinesterase; assay: Inhibition of AChE (unknown origin) by spectrophotometric based Ellman's method
[11] = target: T4, Cholinesterase; assay: Inhibition of BuChE (unknown origin) by spectrophotometric based Ellman's method
[12] = target: T7, Cholinesterase (Equus caballus, UniProt P81908); assay: Inhibition of equine serum BuChE using butyrylthiocholine iodide as substrate preincubated for 5 mins followed by substrate addition and measured for 2 mins by spectrophotometric based Ellman's method
T7 sequence (P81908 whole entry): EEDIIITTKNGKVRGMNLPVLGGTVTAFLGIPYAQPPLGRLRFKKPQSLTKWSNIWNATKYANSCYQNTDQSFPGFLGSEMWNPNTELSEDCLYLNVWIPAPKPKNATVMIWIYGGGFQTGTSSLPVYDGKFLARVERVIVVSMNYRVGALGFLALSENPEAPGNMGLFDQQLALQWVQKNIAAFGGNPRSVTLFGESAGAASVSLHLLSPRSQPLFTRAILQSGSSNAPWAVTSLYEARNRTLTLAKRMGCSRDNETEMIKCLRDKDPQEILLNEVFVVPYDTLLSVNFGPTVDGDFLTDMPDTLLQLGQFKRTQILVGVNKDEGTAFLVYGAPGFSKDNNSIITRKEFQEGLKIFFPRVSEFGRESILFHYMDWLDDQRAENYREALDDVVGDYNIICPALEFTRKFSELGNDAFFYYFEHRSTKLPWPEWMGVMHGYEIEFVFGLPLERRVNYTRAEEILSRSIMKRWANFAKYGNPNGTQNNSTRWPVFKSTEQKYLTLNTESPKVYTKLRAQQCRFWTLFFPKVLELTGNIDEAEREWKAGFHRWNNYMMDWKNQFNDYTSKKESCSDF

[13] = target: T2, Acetylcholinesterase; assay: Inhibition of Electrophorus electricus AChE using acetylthiocholine iodide as substrate preincubated for 5 mins followed by substrate addition and measured for 2 mins by spectrophotometric based Ellman's method
[14] = target: T7, Cholinesterase; assay: Inhibition of equine serum BuChE using butyrylthiocholine iodide as substrate by Ellman's method
[15] = target: T5, Acetylcholinesterase; assay: Inhibition of recombinant human AChE using acetylthiocholine iodide as substrate by Ellman's method
[16] = target: T6, Amyloid-beta precursor protein; assay: Inhibition of self-induced amyloid beta (1 to 42) (unknown origin) aggregation at 25 uM
[17] = target: T6, Amyloid-beta precursor protein; assay: Inhibition of self-induced amyloid beta (1 to 42) (unknown origin) disaggregation at 25 uM
[18] = target: T4, Cholinesterase; assay: Inhibition of BuChE (unknown origin)
[19] = Antioxidant activity assessed as DPPH radical scavenging activity incubated for 30 mins by DPPH assay; assay type: functional
[20] = Antioxidant activity assessed as NO radical scavenging activity incubated for 150 mins in presence of sodium nitroprusside by griess reagent based assay; assay type: functional
[21] = target: T5, Acetylcholinesterase; assay: Inhibition of AChE (unknown origin) using acetylthiocholine iodide as substrate preincubated for 45 mins followed by substrate addition by DTNB reagent based Ellman's method
[22] = Permeability of compound by PAMPA-BBB assay; assay type: ADME; conditions: read-out: permeability
[23] = target: Microtubule-associated protein tau (Homo sapiens) (UniProt P10636); assay: Inhibition of tau aggregation (unknown origin) at 20 uM for 72 hrs by thioflavin S based fluorescence analysis
Microtubule-associated protein tau (Homo sapiens), sequence (P10636 whole entry): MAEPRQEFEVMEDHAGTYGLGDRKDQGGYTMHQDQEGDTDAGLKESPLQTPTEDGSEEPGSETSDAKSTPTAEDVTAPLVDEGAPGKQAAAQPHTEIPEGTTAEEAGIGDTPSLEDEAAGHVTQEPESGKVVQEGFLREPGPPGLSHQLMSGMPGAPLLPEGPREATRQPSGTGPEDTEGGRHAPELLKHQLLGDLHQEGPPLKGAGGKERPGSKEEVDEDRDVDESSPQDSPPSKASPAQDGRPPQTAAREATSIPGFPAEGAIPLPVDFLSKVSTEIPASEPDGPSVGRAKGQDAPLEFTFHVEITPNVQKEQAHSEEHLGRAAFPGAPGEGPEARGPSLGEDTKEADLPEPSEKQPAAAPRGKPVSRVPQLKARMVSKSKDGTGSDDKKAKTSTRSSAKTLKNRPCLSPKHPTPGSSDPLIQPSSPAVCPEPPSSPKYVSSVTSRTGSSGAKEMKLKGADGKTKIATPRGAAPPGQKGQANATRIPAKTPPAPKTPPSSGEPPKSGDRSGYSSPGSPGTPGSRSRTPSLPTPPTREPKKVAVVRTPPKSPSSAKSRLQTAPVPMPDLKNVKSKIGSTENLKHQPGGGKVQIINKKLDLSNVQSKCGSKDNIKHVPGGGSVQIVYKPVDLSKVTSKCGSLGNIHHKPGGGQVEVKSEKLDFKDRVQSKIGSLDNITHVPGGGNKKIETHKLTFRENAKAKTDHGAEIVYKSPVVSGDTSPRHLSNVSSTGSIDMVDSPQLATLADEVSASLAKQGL

[24] = system: SH-SY5Y; assay: Cytotoxicity against human SH-SY5Y cells assessed as reduction in cell viability for 24 hrs by MTT assay; assay type: functional, cell-based
[25] = target: T5, Acetylcholinesterase; assay: Inhibition of recombinant human AChE using acetylthiocholine iodide as substrate preincubated for 5 mins followed by substrate addition by Ellman's method
[26] = system: HepG2; assay: Cytotoxicity against human HepG2 cells assessed as reduction in cell viability for 24 hrs by MTT assay; assay type: functional, cell-based; conditions: HepG2, 24 h
[27] = target: T4, Cholinesterase; assay: Inhibition of recombinant human BuChE using butyrylthiocholine iodide as substrate preincubated for 5 mins followed by substrate addition by Ellman's method
[28] = target: Glutamate receptor ionotropic AMPA (Homo sapiens, UniProt P42261+P42262+P42263+P48058); assay: Inhibition of AMPA receptor (unknown origin); assay type: protein-complex assay
[29] = target: Glutamate [NMDA] receptor; assay: Inhibition of NMDA receptor (unknown origin); assay type: protein-complex assay, Homo sapiens
[30] = target: T6, Amyloid-beta precursor protein; assay: Inhibition of self induced amyloid beta (1 to 42) (unknown origin) aggregation incubated for 24 hrs by Thioflavin T based fluorometric assay
[31] = target: T6, Amyloid-beta precursor protein; assay: Inhibition of amyloid beta (1 to 42) (unknown origin) self aggregation at 100 uM and measured after 24 hrs by Thioflavin T based fluorometric assay

For O=S(=O)(NC1C2CC3CC(C2)CC1C3)c1cccs1 (stereo not drawn), the inhibition [1] was 22% and the inhibition [2] was 10%.

For CCCCCCCNC(=O)Oc1cccc(CN(C)CCCCCOc2ccc3[nH]c(=O)ccc3c2)c1, the IC50 [3] was 0.83 µM and the IC50 [4] was 0.39 µM.

For O=S(=O)(NC12CC3CC(CC(C3)C1)C2)C1CCCS1 (stereo not drawn), the inhibition [1] was 88% and the inhibition [2] was 26%.

Work on O=C(OC1O[C@@H]2COC(=O)c3cc(O)c(O)c(O)c3-c3c(cc(O)c(O)c3O)C(=O)O[C@H]2[C@H](OC(=O)c2cc(O)c(O)c(O)c2)[C@H]1OC(=O)c1cc(O)c(O)c(O)c1)c1cc(O)c(O)c(O)c1 (stereo partly drawn) [TELLIMAGRANDIN II] yielded an IC50 [5] of 20.2 µM.

Work on O=C(CCN1CCN(Cc2ccccc2)CC1)Nc1ccc2nc3n(c(=O)c2c1)CCC3 yielded an inhibition [6] of 45.3%, an IC50 [7] of 3.29 µM and an IC50 [8] of 9.26 µM. It also gave an IC50 [9] of 0.129 µM.

Work on O=C(OC[C@H]1O[C@@H](OC(=O)c2cc(O)c(O)c(O)c2)[C@H](OC(=O)c2cc(O)c(O)c(O)c2)[C@@H](OC(=O)c2cc(O)c(O)c(O)c2)[C@@H]1O)c1cc(O)c(O)c(O)c1 yielded an IC50 [10] of 11.9 µM and an IC50 [11] of 18.3 µM.

In the case of c1ccc(C[n+]2ccc(-c3nc4ccccc4s3)cc2)cc1, the IC50 [12] is reported as 0.182 µM and the IC50 [13] is reported as 0.014 µM.

With CCN1CCN(c2ccc(-c3nc4ccccc4[nH]3)cc2)CC1 the IC50 [14] was 34.9 µM and the IC50 [15] was 5.18 µM.

For COc1cc(/C=C/C(=O)N2CCC(c3ncccn3)CC2)ccc1O, the inhibition [16] was 61.1%, the inhibition [17] was 53.1% and the IC50 [18] was 3.4 µM.

Work on CC1(C)CCCC2(C)OC(=O)C=C12 (racemic) [DIHYDROACTINIDIOLIDE] yielded an IC50 [19] of 0.05 µM, an IC50 [20] of 50 µM and an IC50 [21] of 0.03 µM.

CC1=C[C@H]2c3c(O)cc(-c4cc5ccc(O)cc5o4)cc3O[C@@]3(c4ccc(O)c5c4OC(C)(C)C=C5)Oc4cc(O)ccc4[C@H](C1)[C@@H]23 showed a Papp [22] of 8.7 ×10⁻⁶ cm/s and an inhibition [23] of 63.3%.

Work on COc1ccc2nc3c(c(N)c2c1)C1CC=CC(C3)C1 (stereo not drawn) yielded an IC50 [24] of 17.8 µM, an IC50 [25] of 2.63 µM and an IC50 [26] of 14.9 µM. The IC50 [27] was 3.76 µM.

With NCCCCCCNC1(c2ccccc2)CCCCC1 the IC50 [28] was 1.7 µM and the IC50 [29] was 0.24 µM.

Work on CCOC(=O)C(Cc1cn(-c2ccccc2)nn1)(Cc1cn(-c2ccccc2)nn1)NC(C)=O yielded an IC50 [30] of 8.06 µM and an inhibition [31] of 96.9%.
